Legend:
[1] = target: T1, guanylyl cyclase C (GC-C) (Rattus norvegicus, UniProt P23897); test: biochemical; assay type: biochemical; details: for guanylyl cyclase activation by peptide: 10 μM peptide, presence or absence of 1 mM ATP; for maximum inhibition of guanylyl cyclase: with or without ST; for inhibition at 1000 µM: read-out: decrease of Vmax of guanylyl cyclase
T1 construct: The mucosal layer was scraped from the intestine and homogenized; from tissue; host or cells: small intestinal mucosa of Sprague-Dawley rats (100,000×g washed membrane pellet)
Method: (§1) Membranes were prepared from rat intestinal mucosa cells as described previously (Gazzano et al., (1991) Infect. Immun., 59, 1552-1557, which is incorporated herein by reference). Briefly, Sprague-Dawley rats were sacrificed, small intestine removed and rinsed in ice-cold 0.9% NaCl. All procedures were conducted at 4° C. The mucosal layer was scraped from the intestine and homogenized in 50 mM Tris-HCl (pH 7.6) containing 1 mM dithiothreitol, 1 mM EDTA and 1 mM phenylmethylsulfonyl fluoride, (TED) supplemented with 0.25M sucrose (TEDS). Homogenates were centrifuged at 100,000×g for 60 minutes and the resulting pellet was sequentially washed in (i) TED supplemented with 0.5M KCl, (ii) TED:TEDS (1:1) and (iii) TED. The final pellet was homogenized in TED at a protein concentration of 5-10 mg/mL and aliquots were stored at -70° C.
Guanylyl cyclase activity was assayed as described previously (Waldman et al., (1984) J. Infect. Dis., 149, 83-89, which is incorporated herein by reference). Membranes were incubated at 37° C. in a final volume of 100 μl in the presence of 50 mM Tris-HCl (pH 7.6) containing 10 mM theophylline, 7.5 mM creatine phosphate/[…] creatine phosphokinase (160 U/mg of protein), GTP, manganese or magnesium cofactor (2 mM in excess of nucleotide) and ST and/or adenine nucleotide where indicated. Reactions were initiated by addition of membrane, incubated 5 minutes and terminated by adding 400 μl of 50 mM sodium acetate (pH 4.0) and boiling for 5 minutes. Following acetylation, samples were diluted with 50 mM NaAc containing 20 mM CaCl2. Generated cGMP was quantified by radioimmunoassay as described previously (Waldman et al., (1984) J. Infect. Dis., 149, 83-89). Radioimmunoassays were performed in triplicate, enzyme reactions were performed in duplicate, and results are representative of at least 3 experiments. Enzyme activity was linear with respect to protein concentration and time for all experiments.
Protein concentration was measured by the method of Bradford (Bio-Rad) using bovine serum albumin as standard (Bradford, M. M., (1976) Anal. Biochem., 72, 248-254). All assays were performed in duplicate and data are representative of at least 3 experiments. Values reported for the S0.5 and Vmax are equivalent to the concentration of substrate yielding half-maximum guanylyl cyclase activity and the maximum velocity of the enzyme activity, respectively. All nucleotides were obtained from Sigma, except 2-chloroadenosine 5'-triphosphate (2ClATP) which were from Research Biochemicals Incorporated (Natick, Mass.).

P2y purinergic receptors = details: cited from earlier work
ST receptor (GC-C) = test: ST receptor binding assay ([125I]-ST) in rat intestinal membranes; details: 1 mM nucleotide, presence or absence of GTP and magnesium
Method: as §1, with “Homogenates were centrifuged at 100,000×g for 60 minutes and the resulting pellet was sequentially washed in (i) TED supplemented with 0.5M KCl, (ii) TED:TEDS (1:1) and (iii) TED. The final pellet was homogenized in TED at a protein concentration of 5-10 mg/mL and aliquots were stored at -70° C.” left out
ST binding was quantified as described previously (Hugues et al., (1991) Biochemistry, 30, 10738-10745, which is incorporated herein by reference). […] Parallel incubations contained excess (10^-6 M) unlabeled ST to quantify non-specific binding. Reaction mixtures were incubated for 40 minutes at 37° C. and bound [^125 I]-ST was separated from free ligand by vacuum filtration through Whatman (GF/B glass fiber filters pretreated with 0.3% polyethyleneimine. Filters were washed with 10 ml of 20 mM phosphate-buffered saline (pH 7.2) containing 1 mM EDTA. Radioactivity which remained on the filter was quantified in a Packard γ-counter. Specific binding was determined by subtracting non-specific binding from the total [^125 I]-ST bound in the absence of unlabeled ligand. Non-specific binding was routinely less than 20% of total binding.

[2] = system: GC-C in membranes from T84 and Caco 2 cells; test: Guanylyl cyclase activity in membranes prepared from T84 and Caco 2 cells; assay type: biochemical
Source text: Guanylyl cyclase C undergoes post-translations processing yielding multiple ST-binding proteins detected in crosslinking studies utilizing ^125 I-ST or by Western blot analysis (Vaandrager et al., (1993) J. Biol. Chem., 268, 2174-2179; Vaandrager et al., (1993) J. Biol. Chem., 268, 19598-19603; Ivens et al., (1990) Infect. Immun., 58, 1817-1820; de Sauvage et al., (1993) J. Biol. Chem., 267, 6479-6482; Cohen et al., (1993) J. Cell. Physiol., 156, 138-144). Post-translational processing of GC-C appears to reflect heterogenicity of glycosylation and proteolysis. Processing has been observed in membranes examined from intestinal mucosal cells, intestinal cells grown in vitro, and mammalian cells expressing cloned rat or human GC-C. Thus, the shift in apparent cooperativity with associated changes in Hill coefficients induced by 2-substituted adenine nucleotides could reflect differences in their effects on different populations of GC-C in intestinal membranes. Guanylyl cyclase C is the predominant, […], member of the particulate guanylyl cyclase family expressed by T84 and Caco 2 cells in vitro (Vaandrager et al., (1992) Gastroenterology, 102, 1161-1169). […]

[3] = magnesium cofactor, basal and ST (1 μM)-activated
[4] = manganese cofactor (1.6 without nucleotide)

T1 sequence (P23897 23-1072): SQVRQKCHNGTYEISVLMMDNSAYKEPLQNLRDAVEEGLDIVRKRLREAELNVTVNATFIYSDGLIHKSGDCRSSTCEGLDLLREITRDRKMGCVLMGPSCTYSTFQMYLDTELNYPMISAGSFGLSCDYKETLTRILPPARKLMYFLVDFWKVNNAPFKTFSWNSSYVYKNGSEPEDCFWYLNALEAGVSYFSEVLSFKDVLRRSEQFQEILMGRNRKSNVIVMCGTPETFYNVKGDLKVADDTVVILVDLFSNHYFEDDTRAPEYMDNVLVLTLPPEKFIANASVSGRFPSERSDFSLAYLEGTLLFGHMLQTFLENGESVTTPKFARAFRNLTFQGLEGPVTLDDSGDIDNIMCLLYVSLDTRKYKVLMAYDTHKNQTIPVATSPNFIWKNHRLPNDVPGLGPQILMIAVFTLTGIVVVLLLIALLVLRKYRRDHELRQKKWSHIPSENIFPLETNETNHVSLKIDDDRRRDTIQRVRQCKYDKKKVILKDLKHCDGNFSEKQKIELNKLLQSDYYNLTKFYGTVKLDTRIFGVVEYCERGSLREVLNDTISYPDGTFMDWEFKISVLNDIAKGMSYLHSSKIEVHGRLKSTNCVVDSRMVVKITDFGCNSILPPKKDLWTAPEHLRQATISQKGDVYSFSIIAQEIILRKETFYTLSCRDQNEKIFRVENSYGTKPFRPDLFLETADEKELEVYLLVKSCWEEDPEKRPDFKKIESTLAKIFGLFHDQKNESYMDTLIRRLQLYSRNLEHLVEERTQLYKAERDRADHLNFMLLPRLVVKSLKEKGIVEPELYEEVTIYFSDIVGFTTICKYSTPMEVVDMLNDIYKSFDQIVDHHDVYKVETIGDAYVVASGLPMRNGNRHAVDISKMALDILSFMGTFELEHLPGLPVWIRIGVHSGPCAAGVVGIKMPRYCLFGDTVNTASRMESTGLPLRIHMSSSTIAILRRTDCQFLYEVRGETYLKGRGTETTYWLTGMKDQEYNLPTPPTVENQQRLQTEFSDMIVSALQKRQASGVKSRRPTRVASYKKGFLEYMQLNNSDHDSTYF

## Nc1nc(Cl)nc2c1ncn2[C@@H]1O[C@H](CO)[C@@H](O)[C@H]1O [2ClAdo]
[1]; manganese cofactor
  effect on guanylyl cyclase activity: did not significantly inhibit guanylyl cyclase

## Nc1ncnc2c1ncn2[C@@H]1O[C@H](COP(O)(O)=S)[C@@H](O)[C@H]1O [AMPS, adenosine 5'-O-thiomonophosphate, reference compound]
[1]; [3]
  effect on guanylyl cyclase activity: potentiated guanylyl cyclase activation by ST in a concentration-dependent fashion
[1]; manganese cofactor
  effect on guanylyl cyclase activity: did not significantly inhibit guanylyl cyclase
[1]; with 2ClATP at 0.3 mM
  Ka to potentiate ST-activation of guanylyl cyclase when 2ClATP is incorporated: unchanged

## Nc1ncnc2c1ncn2[C@@H]1O[C@H](COP(=O)(O)CP(=O)(O)OP(=O)(O)O)[C@@H](O)[C@H]1O [AMPCPP, α,β-methylene adenosine 5'-triphosphate, reference compound]
P2y purinergic receptors
  ligand potency for P2y receptors: poor ligand for P2y receptors

## Nc1ncnc2c1ncn2[C@@H]1O[C@H](CO[P@](=O)(O)O[P@](=O)(O)O[P@@](=O)(O)S)[C@@H](O)[C@H]1O [ATPγS, adenosine 5'-O-(3-thiotriphosphate), reference compound]
[1]; magnesium cofactor, in the presence of ST (1 μM)
  maximal activation of guanylyl cyclase: 2- to 3 fold
[1]; manganese cofactor
  effect on guanylyl cyclase activity: inhibited guanylyl cyclase in a concentration-dependent fashion

## ANP: atrial natriuretic peptides, ligand of GC-A [reference compound]
[1]
  guanylyl cyclase activation by peptide: did not exhibit guanylyl cyclase activation

## Nc1nc(Cl)nc2c1ncn2[C@@H]1O[C@H](COP(=O)(O)OP(=O)(O)OP(=O)(O)O)[C@@H](O)[C@H]1O [2ClATP, 2-chloroadenosine 5'-triphosphate]
[1]; Ki (concentration yielding half-maximum inhibition)
  Ki: 300 µM
[1]; in the presence of maximally activating concentrations of AMPS
  guanylyl cyclase activity inhibited: > 95%
[1]; magnesium cofactor
  Ki values in the presence or absence of ST: not significantly different
  maximum inhibition of guanylyl cyclase: > 95%
[1]; [3]
  effect on guanylyl cyclase activity: inhibited guanylyl cyclase activity
[1]; manganese cofactor
  effect on guanylyl cyclase activity: inhibited guanylyl cyclase in a concentration-dependent fashion
  guanylyl cyclase activity inhibited: > 95%
[1]; with maximally activating AMPS (3 mM)
  Ki when AMPS is incorporated in enzyme incubations: unchanged
ST receptor (GC-C)
  specific binding of [125I]-ST to intestinal membranes: unchanged

## CNP: C-type natriuretic peptide, ligand of GC-B [reference compound]
[1]
  guanylyl cyclase activation by peptide: did not exhibit guanylyl cyclase activation

## CSc1nc(N)c2ncn([C@@H]3O[C@H](COP(=O)(O)OP(=O)(O)OP(=O)(O)O)[C@@H](O)[C@H]3O)c2n1 [2MeSATP]
[1]; Ki for inhibition of guanylyl cyclase, 20 μM GTP
  Ki: 390 ± 260 µM
[1]; Ki for inhibition of guanylyl cyclase, 1000 μM GTP
  Ki: 280 ± 180 µM
[1]; magnesium cofactor
  Ki values in the presence or absence of ST: not significantly different
  maximum inhibition of guanylyl cyclase: > 95%
[1]; magnesium cofactor, 1 mM nucleotide, presence and absence of ST
  Hill coefficient of guanylyl cyclase in the presence of nucleotide: about 1.0
[1]; [3]
  effect on guanylyl cyclase activity: inhibited guanylyl cyclase activity
[1]; magnesium cofactor, nucleotide 1 mM, presence or absence of ST
  effect on Vmax and S0.5: lowered the Vmax without significantly changing the S0.5
[1]; manganese cofactor
  effect on guanylyl cyclase activity: inhibited guanylyl cyclase in a concentration-dependent fashion
  guanylyl cyclase activity inhibited: > 95%
[1]; [4]
  Hill coefficient of guanylyl cyclase in the presence of nucleotide: 0.7
[1]; manganese cofactor, 1 mM nucleotide
  effect on S0.5: only a small effect on the S0.5
[1]
  inhibition at 1000 µM: > 90%
[2]
  effect on cooperativity of GC-C: shift from positive to negative cooperativity
  inhibition of GC-C: potently inhibited GC-C

## Nc1ncnc2c1ncn2[C@@H]1O[C@H](COP(=O)(O)OP(=O)(O)OP(=O)(O)O)[C@@H](O)[C@H]1O [ATP, reference compound]
[1]; [3]
  effect on guanylyl cyclase activity: activated guanylyl cyclase in a concentration-dependent manner but with a lower efficacy than ATPγS
[1]; manganese cofactor
  effect on guanylyl cyclase activity: inhibited guanylyl cyclase in a concentration-dependent fashion
[1]; [4]
  Hill coefficient of guanylyl cyclase in the presence of nucleotide: less than 1.0
[1]; manganese cofactor, 1 mM nucleotide (0.08 mM without)
  S0.5 of guanylyl cyclase in the presence of nucleotide: 0.25 mM
[1]; rat intestinal membranes
  concentration at which the nucleotide inhibits guanylyl cyclase activity (biphasic dose-response): above 1 mM
[1]
  inhibition at 1000 µM: 80%

## Nc1ncnc2c1ncn2[C@@H]1O[C@H](COP(=O)(O)OP(O)(O)=S)[C@@H](O)[C@H]1O [ADPβS, adenosine 5'-O-(2-thiodiphosphate), reference compound]
P2y purinergic receptors
  ligand potency for P2y receptors: potent ligand for P2y receptors

Reference: patent US5817641A, “Treatment of enterotoxigenic diarrhea with 2-substituted adenosine derivatives” (priority 1997, dated 1998)
